Test results published in PubChem BioAssay (NCI).
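Test compounds were applied to cells in 96-well plates for 48 hours at 5 doses. TGI: concentration producing complete growth inhibition.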

Assays:
Assay in all cases: inhibition of tumour cell growth, NCI panel, 48 h
BT-549 breast = system: BT-549 breast
SN12C renal = system: SN12C renal
DU-145 prostate = system: DU-145 prostate
EKVX NSCLC = system: EKVX NSCLC
MALME-3M melanoma = system: MALME-3M melanoma
SR leukemia = system: SR leukemia
SK-MEL-2 melanoma = system: SK-MEL-2 melanoma
SK-MEL-28 melanoma = system: SK-MEL-28 melanoma
SNB-75 CNS = system: SNB-75 CNS
786-0 renal = system: 786-0 renal
HOP-92 NSCLC = system: HOP-92 NSCLC
OVCAR-5 ovarian = system: OVCAR-5 ovarian
TK-10 renal = system: TK-10 renal
MCF7 breast = system: MCF7 breast
UO-31 renal = system: UO-31 renal
MDA-N = system: MDA-N
IGROV1 ovarian = system: IGROV1 ovarian
CCRF-CEM leukemia = system: CCRF-CEM leukemia
LOX IMVI melanoma = system: LOX IMVI melanoma
OVCAR-8 ovarian = system: OVCAR-8 ovarian

SMILES	TGI (BT-549 breast) [µM]	TGI (SN12C renal) [µM]	TGI (DU-145 prostate) [µM]	TGI (EKVX NSCLC) [µM]	TGI (MALME-3M melanoma) [µM]	TGI (SR leukemia) [µM]	TGI (SK-MEL-2 melanoma) [µM]	TGI (SK-MEL-28 melanoma) [µM]	TGI (SNB-75 CNS) [µM]	TGI (786-0 renal) [µM]	TGI (HOP-92 NSCLC) [µM]	TGI (OVCAR-5 ovarian) [µM]	TGI (TK-10 renal) [µM]	TGI (MCF7 breast) [µM]	TGI (UO-31 renal) [µM]	TGI (MDA-N) [µM]	TGI (IGROV1 ovarian) [µM]	TGI (CCRF-CEM leukemia) [µM]	TGI (LOX IMVI melanoma) [µM]	TGI (OVCAR-8 ovarian) [µM]
CC(C)(C)OC(=O)NCCNCCNc1ccccc1	> 100	> 100	> 100	> 100	> 100	> 100	> 100	> 100	> 100	> 100	> 100	> 100	> 100	> 100	> 100	> 100	> 100	> 100	> 100	> 100
OC(c1ccc2c(c1)OCO2)c1ccc2c(c1)OCO2	> 100	> 100	> 100	> 100	> 100	> 100	> 100	> 100	> 100	> 100	> 100	> 100	> 100	> 100	> 100	> 100	> 100	> 100	> 100	> 100
O=C1NNC2NC(=O)C3(NN2C1=O)c1ccccc1-c1ccccc13 (centres undefined)	> 100	> 100	> 100	> 100	> 100	> 100	> 100		> 100	> 100	> 100	> 100	> 100	> 100	> 100	> 100	> 100	> 100	> 100	> 100
CCN(CC)c1ccc(/C=C/C(=O)c2cc(C(C)(C)C)c(O)c(C(C)(C)C)c2)cc1	> 100	> 84	> 100	> 100	> 100	> 24.5	> 71.5	> 100	> 100	> 81.2	> 100	> 44.8	97.6	> 100	> 100	13.5	> 100	> 66	> 100	> 100
NC(=O)SCCC(N)C(=O)O (centres undefined)	> 100	> 100	> 100	> 100	> 100	> 100	> 100	> 100	> 100	> 100	> 100	> 100	> 100	> 100	> 100	> 100	> 100	> 100	> 100	> 100
O=C1c2ccccc2C2C1C(c1ccccc1)C1(Cc3ccccc3C1=O)C2c1ccccc1 (centres undefined)	> 100	> 100	> 100	> 100	> 100	> 100	> 100	> 100	> 100	> 100	> 100	> 100	> 100	> 100	> 100	> 100	> 100	> 100	> 100	> 100
COC(=O)C(COC(=O)/C=C/c1ccc(OC(C)=O)c(OC(C)=O)c1)NC(=O)/C=C/c1ccc(OC(C)=O)c(OC(C)=O)c1 (centres undefined)	> 100	45.4	45.2	> 100	32	> 100	36.3	81.7	> 100	47.2	> 100	> 100		> 100		71.7	> 100	> 100	53.8	> 100
O=c1[nH]nc(-c2ccccc2)n1/N=C/c1ccccc1Cl	> 100	> 100	> 100	> 100	86.4	85.6	46.3	> 100	> 100	> 100	> 100	> 100	> 100	> 100	> 100	> 100	> 100	> 100	> 100	> 100
COc1cc2c(cc1O)C1(Cc3ccc4c(c3C1=O)OCO4)N(C)CC2 (centres undefined)	> 100	> 100	> 100	> 100	> 100	> 100	> 100	> 100	> 100	> 100	> 100	> 100	> 100	> 100	> 100	> 100	> 100	> 100		> 100
CC1CN(c2cc3c(cc2F)c(=O)c(C(=O)O)cn3-c2ccc(F)cn2)CC(C)N1 (centres undefined)	> 100	> 100	> 100	> 100	> 100	> 100		> 100	> 100	> 100	> 100	> 100	> 100	> 100	> 100	> 100	> 100	> 100	> 100	> 100
O=c1cc(N=Nc2ccc(Cl)c(Cl)c2)[nH]c(=O)[nH]1	4.77	4.79	9.19	3.49	4.53	1.54	12	3.3	22.5	2.86	3.07	11.2	3.18	3.99	4.93	3.36	4.31	0.495	3.36	4.89
CSC1=NNC(SC)=NN1	0.348	0.322	0.345	0.327	0.289	0.0483	0.281	0.326		0.328	0.316	0.324	0.357	0.396	0.328	0.319	0.302	> 1	0.287	0.812
CC(C)(C)OC(=O)NCCCC(=O)NC1(c2cc3ccccc3s2)CCCCC1	32.7	35.9	> 100	35.9	37	27.9		31.3	27.7	37.4	37.6		97.2	41	14.8	34.2	46.2	28.4	29.6	48.3
CC(=O)c1ccc2c(c1)CC1(C2)Cc2ccc3c(c2C1=O)CCC3 (centres undefined)	> 100	> 100	> 100		57	> 100	35.5	56.5	91.3	40.8	41.2	> 100	64.2	72	> 100	94.6	> 100	> 100	> 100	
CSc1nc2c(c(N3CCOCC3)n1)C(O)n1c(nc3ccccc31)S2 (centres undefined)	> 100	> 100	> 100	> 100	> 100	> 100	> 100		81.9	> 100	> 100	> 100	> 100	> 100	> 100	> 100	> 100	> 100	> 100	> 100
COc1ccc(C2=C(N)c3ncccc3C2=O)cc1	> 100	> 100	> 100	> 100	> 100	> 100	> 100	> 100	> 100	> 100	> 10	> 100	> 10	> 100	> 100	> 100	> 100	> 100	> 100	> 100
O=C(NC(Cc1cnc[nH]1)C(=O)N1CCCC1)C1CCCC1 (centres undefined)	> 100	> 100	> 100	> 100	> 100	> 100		> 100	> 100	> 100	> 100	> 100	> 100	> 100	> 100	> 100	> 100	> 100	> 100	> 100
CCCCCCCCCCCCCCCCCCNc1nc(=O)n(C2CC(O)C(COP(=O)(O)OCC3OC(n4ccc(N)nc4=O)C(O)C3O)O2)cc1F (centres undefined)	> 100	> 100	> 100	> 100	> 100	> 100	> 100	> 100	> 100	> 100	> 100	> 100	> 100	> 100	> 100	> 100	> 100	> 100	22.3	23
CSc1nc(C)c(CCOC(C)=O)c(Cl)n1	> 100	> 100	> 100	> 100	> 100	> 100		> 100	> 100	> 100	> 100	> 100	> 100	> 100	> 100	> 100	> 100	> 100	> 100	> 100
COc1cc(/C=C\c2nnc(/C=C\c3ccc(O)c(OC)c3)s2)ccc1O	11.1	> 92.8	8.26	18.4	24	7.37	26	> 100	8.83	> 100	42.2	48.8	> 51.2	11.3	15.3	16.4	> 36.6	14.5	22.4	> 42.9
ON[C@H]1C[C@@H](n2cnc3c(NC4CC4)ncnc32)[C@H](O)[C@@H]1O	> 100	> 100	> 100	> 100	> 100	> 100	> 100	> 100	> 100	> 100	> 100	> 100	> 100	> 100	> 100	> 100	> 100	> 100	> 100	> 100
CN(C)c1ccc(C2CC(c3ccc4ccccc4c3O)=NN2c2ccc([N+](=O)[O-])cc2[N+](=O)[O-])cc1 (centres undefined)	> 100	> 100	> 100		> 100	51.3	> 100	> 100	> 100	> 100	> 100	> 100	> 100	> 100	> 100	30.5	> 100	94.3		> 100
C[N+](C)(C)CC(=O)N/N=C(\C(=O)NC1=C(Cl)C(=O)c2ccccc2C1=O)C(C#N)c1nc(-c2ccc([N+](=O)[O-])cc2)cs1 (centres undefined)	15.1	28.2	14.1	34.2	3.97	52.5	30.9	17.6	19.9	29.1	29	26.3	74.6	22.3	31	3.2	18.4	49.5	9.48	47.6
Cc1ccc(OCC2OC(n3cnc4c(Cl)nc(Cl)nc43)CC2Oc2ccc(C)cc2)cc1 (centres undefined)	4.3	17.9	3.84	14.9	5.13	5.17	5.26	7.56	5.39	32.4	6.4	19.1	23.3	4.01		3.84	4.48	> 100	3.61	5.39
